Source: article PMC10545747, “Development of cyclopeptide inhibitors of cGAS targeting protein-DNA interaction and phase separation” (Nature Communications, 2023)
In brackets after ≈: the same amount, converted by molar mass. Several values for one entry are separate records, joined by “and”; a condition that tells them apart may be missing. Equal values may be shown once. Square brackets hold non-standard residues; d marks the D form. Peptide text beside a SMILES is read from it.

How the values were obtained:
Jurkat cells = test system: Jurkat cells
Description: (§1) Cell viability was measured by cell counting kit-8 (TargetMol) according to the manufacturer’s instructions.
Supplementary Fig. 3. […] (a) L929 cells were pretreated for
4 h with DMSO or the indicated doses of XQ2, followed by stimulation with dsDNA for 4 h, and then cell lysates were
(b) Jurkat cells were exposed to the indicated doses of XQ2, and then stimulated with
Data are representative of three independent experiments in (a, b). (Data are presented as mean ± SD, n = 3 independent
provided as a Source Data file.
(1 picture or pasted object on this page, not shown here)

[1] = test system: macrophage RAW264.7 cells; test: qPCR of Ifnb1/Cxcl10/Il6 mRNA in RAW264.7 cells (ISD or HSV-1); type: cell-based, mouse; design: key to Ifnb1 mRNA (Fig. S2c) / Cxcl10 mRNA (Fig. S2c) / Ifnb1 mRNA (Fig. S2d) / Cxcl10 mRNA (Fig. S2d) / Ifnb1 mRNA (Fig. S7g) / Cxcl10 mRNA (Fig. S7g) / Il6 mRNA (Fig. S7g): mRNA level normalized to GAPDH (relative expression)
Description: The indicated cells were stimulated with either ISD (Sangon Biotech), HSV-1 (Provided by Dr. Zhengfan Jiang), HSV60mer (Sangon Biotech), SATE-cddA[70], 2’3’-cGAMP (Invivogen, Cat# tlrl-nacga23-1), ADU-S100 (MedChemExpress, Cat# HY-12885A) or Poly(I:C) (Invivogen, Cat# tlrl-pic) after XQ2 or XQ2B treatment. Total RNA was isolated from indicated cells that incubated with the drugs for indicated time or mice tissues by using NucleoZOL reagent (MACHEREY-NAGEL) according to the manufacturer’s instructions. The quantifications of mRNA levels were carried out by real-time PCR using a PerfectStart® Uni RT&qPCR Kit (TransGen Biotech) on the QuantStudio 5 qPCR machine (Applied Biosystems). Samples were carried out in triplicate and the target CT values were normalized to GAPDH CT values. Primers of qPCR used in this study can be found in Supplementary Table S2. […]
(c) L929, p = 0.0005 (Ifnb1),
BMDMs, p = 0.0001 (Ifnb1), p < 0.0001 (Cxcl10).
representative of three independent experiments in (a-g). (Data are presented as mean ± SD, n = 3 independent
Source data are provided as a Source Data file.

THP1 cells = test: in vitro; details: for Cell viability (Fig. S7a): human, THP1 cells
Description: as §1
(§2) Supplementary Fig. 2. […]
(§3) (e-g) THP1 cells (e), L929 cells (f) and RAW264.7 cells (g) were exposed to the indicated doses of XQ2 for 48h, the cell viability was measured by CCK8 assay. Data are representative of three independent experiments in (a-g). (Data are presented as mean ± SD, n = 3 independent samples in (a-g), **p < 0.01, ***p < 0.001, ****p < 0.0001 using one-way ANOVA with Dunnett’s post hoc test).
(§4) Source data are provided as a Source Data file. […]
(§5) Relative viability(%) XQ2B
(§6) Supplementary Fig. 7. […] (a) THP1 cells were exposed to the indicated doses of XQ2 or XQ2B for 48h. The cell viability was measured by CCK8 assay. […]
(§7) Data are representative of three independent experiments with similar results in (e), or three independent experiments in (a -d, f, g) . (Data are presented as mean ± SD, n = 3 independent samples in (a-d, f, g), ns, not significant, **p < 0.01, ***p < 0.001, ****p < 0.0001 using one-way ANOV A with Dunnett’s post hoc test). Source data are provided as a Source Data file.

in vitro = details: human, THP1 cells, Cell viability (Fig. S7a)
Description: as §1, §2, §3, §4, §5, §6, §7

[2] = test system: THP1 cells stimulated with poly (I: C) (TLR3 and RIG-I/MDA-5 pathways); test: qPCR of IFNB1 mRNA in THP1 cells stimulated by poly (I: C); type: cell-based, human
Text: We next evaluated the inhibitory effect of XQ2 against cGAS in murine fibroblast L929 cells, macrophage RAW264.7 cells and primary bone marrow-derived macrophages (BMDMs) from C57BL/6 mice.
The indicated cells were stimulated with either ISD (Sangon Biotech), HSV-1 (Provided by Dr. Zhengfan Jiang), HSV60mer (Sangon Biotech), SATE-cddA[70], 2’3’-cGAMP (Invivogen, Cat# tlrl-nacga23-1), ADU-S100 (MedChemExpress, Cat# HY-12885A) or Poly(I:C) (Invivogen, Cat# tlrl-pic) after XQ2 or XQ2B treatment. Total RNA was isolated from indicated cells that incubated with the drugs for indicated time or mice tissues by using NucleoZOL reagent (MACHEREY-NAGEL) according to the manufacturer’s instructions. The quantifications of mRNA levels were carried out by real-time PCR using a PerfectStart® Uni RT&qPCR Kit (TransGen Biotech) on the QuantStudio 5 qPCR machine (Applied Biosystems). Samples were carried out in triplicate and the target CT values were normalized to GAPDH CT values. Primers of qPCR used in this study can be found in Supplementary Table S2.

[3] = Solubility in water (spectrophotometer at 280nm, turbidity); details: water
Description: Supplementary Fig. 7. […] (a) THP1 cells were exposed to the indicated doses of XQ2 or XQ2B for 48h. The cell viability was measured by CCK8 assay. (b) The comparison of solubility of XQ2 and XQ2B. The maximum concentration of XQ2 or XQ2B dissolved in water was measured by a spectrophotometer at 280nm. […]
as §7

CC(C)C[C@@H]1NC(=O)[C@H](CCCNC(=N)N)NC(=O)[C@H](C(C)C)NC(=O)[C@@H]2CCCN2C(=O)[C@@H](Cc2ccccc2)NC(=O)[C@H](CC(C)C)NC(=O)[C@H](CCCNC(=N)N)NC(=O)[C@H]([C@@H](C)O)NC(=O)[C@H](C)NC(=O)[C@@H](Cc2ccccc2)NC1=O [XQ2B] (cyclo([dF]ATRL[dF]PVRL))
ISD-induced cell death (Jurkat cells): markedly reduced ISD-induced autophagy and cell death
Cxcl10 mRNA (Fig. S7g) ([1]; ISD+XQ2B): 1166.92 and 1221.79 and 1328.72
Ifnb1 mRNA (Fig. S7g) ([1]; ISD+XQ2B): 1896.14 and 2591.99 and 2490
Il6 mRNA (Fig. S7g) ([1]; ISD+XQ2B): 1526.53 and 1838.42 and 1588.85
Cxcl10 mRNA (Fig. S7g) ([1]; XQ2B alone): 2.509 and 2.275 and 2.115
Ifnb1 mRNA (Fig. S7g) ([1]; XQ2B alone): 1.291 and 1.1996 and 1.38
cytotoxicity (THP1 cells): less cytotoxicity
IC50 (THP1 cells; 48 h): 89.5 ± 31.9 µM
Cell viability (Fig. S7a) (THP1 cells; 48 h, 0.195312 µM): 104.965
Cell viability (Fig. S7a) (THP1 cells; 48 h, 0.390625 µM): 103.952
Cell viability (Fig. S7a) (THP1 cells; 48 h, 100 µM): 3.53
Cell viability (Fig. S7a) (THP1 cells; 48 h, 200 µM): 3.549
Cell viability (Fig. S7a) (THP1 cells; 48 h, 400 µM): 3.541
viability at 48 h, 0.195312 µM (in vitro): 100%
viability at 48 h, 0.390625 µM (in vitro): 98%
viability at 48 h, 0.78125 µM (in vitro): 101%
viability at 48 h, 1.5625 µM (in vitro): 108%
viability at 48 h, 3.125 µM (in vitro): 97.6%
viability at 48 h, 6.25 µM (in vitro): 113%
viability at 48 h, 12.5 µM (in vitro): 100%
viability at 48 h, 25 µM (in vitro): 104%
viability at 48 h, 50 µM (in vitro): 68.2%
viability at 48 h, 100 µM (in vitro): 3.61%
viability at 48 h, 200 µM (in vitro): 3.63%
viability at 48 h, 400 µM (in vitro): 3.62%
IFNB1 mRNA level (Fig. S7c) ([2]; Poly(I:C), XQ2B): 1527.76 and 1720.01 and 1878.29
poly (I: C)-induced IFNB1 expression ([2]; THP1, 10 μM): no significant effect on signaling induced by STING agonists or TLR3 agonist such as poly (I: C)
Concentration (solubility, Fig. S7b) [3]: 2890 µg/mL and 2940 µg/mL
solubility [3]: higher solubility compared to XQ2
solubility ([3]; Concentration (solubility, Fig. S7b)): 2850 µg/mL (≈ 2370 µM)
